# Data as given in patent US20250129082A1, “N-1 Triazole Substituted Imidazoquinolines, Conjugates Thereof, and Methods” (Solventumn Intellectual Properties Company, priority 2021, published 2025).
# Legend:
# Format in all cases: cell-based
# [1] = biological target: T1, human TLR8 (Homo sapiens, UniProt Q9NR97); experiment: TLR activation and specificity, HEK-BLUE-hTLR8 SEAP reporter cells; conditions: 16-20 hours, lowest concentration giving SEAP response at least 2× vehicle control, tested 0.01-30 micromolar
# T1 construct: host or cells: HEK293 (HEK-BLUE-hTLR8)
# T1 sequence (Q9NR97 27-1041): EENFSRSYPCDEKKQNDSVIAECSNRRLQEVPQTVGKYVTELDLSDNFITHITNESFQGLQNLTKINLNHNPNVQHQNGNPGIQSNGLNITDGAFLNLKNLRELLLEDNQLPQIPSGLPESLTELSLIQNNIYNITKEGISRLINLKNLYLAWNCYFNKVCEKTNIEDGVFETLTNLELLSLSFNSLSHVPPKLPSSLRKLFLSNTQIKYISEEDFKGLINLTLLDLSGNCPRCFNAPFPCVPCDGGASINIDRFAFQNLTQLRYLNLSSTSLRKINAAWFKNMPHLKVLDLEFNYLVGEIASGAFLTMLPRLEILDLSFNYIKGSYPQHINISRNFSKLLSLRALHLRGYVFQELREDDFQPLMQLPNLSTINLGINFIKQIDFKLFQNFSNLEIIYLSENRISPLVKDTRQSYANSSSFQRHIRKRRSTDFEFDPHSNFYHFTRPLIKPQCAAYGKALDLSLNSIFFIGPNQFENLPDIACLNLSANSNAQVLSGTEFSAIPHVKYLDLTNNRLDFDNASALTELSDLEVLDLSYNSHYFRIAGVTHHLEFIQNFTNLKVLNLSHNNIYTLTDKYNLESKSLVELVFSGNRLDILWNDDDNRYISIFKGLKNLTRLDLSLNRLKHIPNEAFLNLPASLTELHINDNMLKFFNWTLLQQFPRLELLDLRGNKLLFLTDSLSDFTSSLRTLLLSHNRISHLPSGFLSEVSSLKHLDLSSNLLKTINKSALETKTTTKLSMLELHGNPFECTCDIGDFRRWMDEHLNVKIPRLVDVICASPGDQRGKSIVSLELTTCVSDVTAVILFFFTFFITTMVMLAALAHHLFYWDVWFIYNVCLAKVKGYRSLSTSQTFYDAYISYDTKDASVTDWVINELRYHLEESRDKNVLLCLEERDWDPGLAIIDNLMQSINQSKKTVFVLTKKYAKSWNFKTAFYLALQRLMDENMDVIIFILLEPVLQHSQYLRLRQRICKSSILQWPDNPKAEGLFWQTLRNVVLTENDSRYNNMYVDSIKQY
# Description: (§1) HEK-BLUE-hTLR7 or hTLR8 reporter cells were obtained from InvivoGen, San Diego, CA. According to the manufacturer's description, these reporter cells were prepared by co-transfection of HEK293 cells with an inducible secreted embryonic alkaline phosphatase (SEAP) reporter gene and either the human TLR7 or TLR8 gene. The SEAP reporter gene was placed under the control of an IFN-β minimal promoter fused to five NF-κB and AP-1-binding sites. In the presence of a TLR ligand, activation of NF-κB and AP-1 occurs, resulting in a corresponding increase in SEAP levels.
# (§2) In the assay, the HEK cells were grown and maintained using standard cell culture techniques in a growth medium that contained Dulbecco's Modified Eagle Medium (ThermoFisher Scientific Incorporated, Waltham, MA) supplemented with 1% penicillin/streptomycin and 10% heat-inactivated Gibco fetal bovine serum (ThermoFisher Scientific). Each compound was solubilized in DMSO to create a 3 mM stock solution. The stock solution was then further diluted with the growth medium to prepare serial dilutions. Each test compound was tested at a concentration of 30, 10, 3.3, 1.1, 0.37, 0.12, 0.04, and 0.01 micromolar using a 96-well format with 5×10^4 cells and 200 microliters of growth medium per well.
# (§3) For each compound, hTLR7, hTLR8, and their respective null control HEK cells were screened. DMSO serially diluted into the growth medium served as the vehicle control. Cell culture supernatants containing the SEAP reporter were collected after an incubation period of 16-20 hours in a cell culture incubator (37° C. and 5% CO2), and either analyzed immediately or stored at −80° C. SEAP levels were measured using the colorimetric enzyme assay (QUANTI-BLUE (InvivoGen) according to manufacturer's instructions.
# (§4) Specifically, the minimum effective concentration of each compound (micromolar) was determined as the lowest concentration of the compound that produced a SEAP expression response at least 2× greater than that observed with the vehicle control wells.
# [2] = tested on: Human peripheral blood mononuclear cells (PBMC); experiment: Cytokine induction in human cells (PBMC), Ella Simple Plex ELISA; conditions: 21-24 hours, tested 0.01-30 micromolar; for MEC to Induce Cytokine, IFN-alpha: lowest concentration inducing IFN-alpha at least 2× negative control; for MEC to Induce Cytokine, IFN-gamma: lowest concentration inducing IFN-gamma at least 2× negative control; for MEC to Induce Cytokine, TNF-alpha: lowest concentration inducing TNF-alpha at least 2× negative control
# Description: Whole blood was obtained from healthy human donors and collected by venipuncture into vacutainer tubes or syringes containing EDTA. Human peripheral blood mononuclear cells (PBMC) were purified from the whole blood by density gradient centrifugation. Histopaque 1077 (15 mL, Sigma-Aldrich) was transferred to 6×50 mL sterile polypropylene conical tubes. The Histopaque was overlayed with 15-25 mL of blood diluted 1:2 in Hank's Balanced Salts Solution (HBSS) (Gibco, Life Technologies, Grand Island, NY). The tubes were then centrifuged at 1370 rpm for 30 minutes at 20° C., with no brake (400λg, GH 3.8A Rotor).
# The interface (buffy coat) containing the PBMC was collected and placed in a new sterile 50 mL conical polypropylene centrifuge tube. The PBMC were mixed with an equal volume of HBSS (about 20 mL from the interface and about 20 mL of HBSS), and then centrifuged at 1090 rpm, 10 minutes, 20° C., with brake (270λg, GH 3.8A Rotor). After completing centrifugation, the cells were resuspended in 2-3 mL ACK Red blood cell lysis buffer (ammonium chloride potassium solution, Gibco, Life Technologies) and incubated for 2-5 minutes at 20° C. Next, HBSS (40 mL) was added to the cells, and the sample was centrifuged at 270×g for 10 minutes at 20° C. The supernatant was decanted, and the cell pellet was resuspended in 5 mL AIM V Medium (Gibco, Life Technologies). Cell aggregates and debris were removed by filtering the cell solution through a BD Falcon 70 micron nylon cell strainer (BD Biosciences, San Jose, CA).
# The number of viable cells was determined by counting with a Moxi Z instrument (ORFLO Technologies, Ketchum, ID) or by using a hemacytometer. For determining cell viability with a hemacytometer, the cells were diluted 1/10 in 0.4% trypan blue and HBSS (specifically, 50 microliter of trypan blue+40 microliter of HBSS+10 microliter of cell solution were added to a microfuge tube and mixed). Ten microliters of the diluted cells were then applied to the hemacytometer, and the number of viable PBMC were determined by microscopy.
# The PBMC sample was then resuspended in 96-well plates at a concentration of 8×10^5 cells/well in 0.1 mL of AIM-V medium. Each compound was solubilized in DMSO to create a 3 mM stock solution. The stock solution was then further diluted with AIM-V medium to prepare the serial dilutions. The diluted compound (100 microliters) was then transferred to the PBMCs to produce testing sets with final compound concentrations of 30, 10, 3.3, 1.1, 0.37, 0.12, 0.04, 0.01 micromolar. The plates also had both positive and negative controls. The negative control wells contained only AIM-V medium with no example compound. The positive control wells contained a control set of imiquimod serially diluted to concentrations of 30, 10, 3.3, 1.1, 0.37, 0.12, 0.04, 0.01 micromolar. The concentrations used in the control set were selected to match the concentrations used in the testing set. The plates were then cultured at 37° C./5% CO2 for 21-24 hours. Cell-free supernatants were harvested by centrifuging the 96-well plates at 2100 rpm, 23° C. for 10 minutes. Approximately 160 microliters of the supernatant was then stored in a NUNC 96-well plate, covered with the compression cap and stored at −80° C. until the cytokine analysis was done.
# Cytokine levels (human IFN-alpha multisubtype, human IFN-gamma, and human TNF-alpha) were measured in picograms/mL by Ella Simple Plex ELISA (ProteinSimple, San Jose, CA) according to the manufacturer's instructions.
# Specifically, the minimum effective concentration of each compound (micromolar) was determined as the lowest concentration of the compound that induced a measured cytokine response at a level ([…]) that was at least 2× greater than that observed with the negative control wells.
# [3] = biological target: T2, human TLR7 (Homo sapiens, UniProt Q9NYK1); experiment: TLR activation and specificity, HEK-BLUE-hTLR7 SEAP reporter cells; conditions: 16-20 hours, lowest concentration giving SEAP response at least 2× vehicle control, tested 0.01-30 micromolar
# T2 construct: host or cells: HEK293 (HEK-BLUE-hTLR7)
# T2 sequence (Q9NYK1 27-1049): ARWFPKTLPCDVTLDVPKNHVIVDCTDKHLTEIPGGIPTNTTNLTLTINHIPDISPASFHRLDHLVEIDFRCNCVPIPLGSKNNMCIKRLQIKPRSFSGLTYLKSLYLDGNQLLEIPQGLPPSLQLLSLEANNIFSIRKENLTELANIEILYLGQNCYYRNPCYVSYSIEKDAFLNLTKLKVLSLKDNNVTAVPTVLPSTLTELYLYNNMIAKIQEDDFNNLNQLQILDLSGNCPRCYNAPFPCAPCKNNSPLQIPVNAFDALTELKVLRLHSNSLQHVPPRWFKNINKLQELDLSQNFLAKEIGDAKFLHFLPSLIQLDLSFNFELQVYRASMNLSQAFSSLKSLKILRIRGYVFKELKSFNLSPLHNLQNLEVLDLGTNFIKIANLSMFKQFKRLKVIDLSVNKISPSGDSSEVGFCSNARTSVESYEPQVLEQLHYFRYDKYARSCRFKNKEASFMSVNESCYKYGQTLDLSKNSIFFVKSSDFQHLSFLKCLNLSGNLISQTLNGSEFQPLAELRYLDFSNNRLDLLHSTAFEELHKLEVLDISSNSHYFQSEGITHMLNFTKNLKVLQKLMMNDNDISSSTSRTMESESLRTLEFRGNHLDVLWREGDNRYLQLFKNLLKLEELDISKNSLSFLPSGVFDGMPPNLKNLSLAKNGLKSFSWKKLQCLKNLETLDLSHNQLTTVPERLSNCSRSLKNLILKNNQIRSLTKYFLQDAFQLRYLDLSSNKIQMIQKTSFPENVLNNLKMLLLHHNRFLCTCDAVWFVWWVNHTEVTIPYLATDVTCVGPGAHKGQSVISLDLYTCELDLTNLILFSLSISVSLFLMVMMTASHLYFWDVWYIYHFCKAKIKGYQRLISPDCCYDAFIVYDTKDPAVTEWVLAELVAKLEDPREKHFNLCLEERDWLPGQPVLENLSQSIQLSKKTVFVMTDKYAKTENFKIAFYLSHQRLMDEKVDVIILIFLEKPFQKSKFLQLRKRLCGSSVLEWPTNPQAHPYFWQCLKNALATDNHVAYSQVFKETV
# Description: as §1, §2, §3, §4
Structure (SMILES),"MEC to Produce TLR Activation, TLR 8 [1]","MEC to Induce Cytokine, IFN-alpha [2]","MEC to Induce Cytokine, IFN-gamma [2]","MEC to Induce Cytokine, TNF-alpha [2]","MEC to Produce TLR Activation, TLR 7 [3]"
"CCOC[C@H](Cc1ccc(OCCCCCCCCCCCn2cc(-c3ccccc3)nn2)cc1)n1cnc2c(N)nc3ccccc3c21 [Example 4, (S)-1-(1-ethoxy-3-(4-((11-(4-phenyl-1H-1,2,3-triazol-1-yl)undecyl)oxy)phenyl)propan-2-yl)-1H-imidazo[4,5-c]quinolin-4-amine]",3.3 µM,3.3 µM,10 µM,3.3 µM,3.3 µM
"CCOC[C@H](Cc1ccc(OCCn2cc(-c3ccccc3)nn2)cc1)n1cnc2c(N)nc3ccccc3c21 [Example 2, (S)-1-(1-ethoxy-3-(4-(2-(4-phenyl-1H-1,2,3-triazol-1-yl)ethoxy)phenyl)propan-2-yl)-1H-imidazo[4,5-c]quinolin-4-amine]",3.3 µM,≤0.01 µM,≤0.01 µM,≤0.01 µM,≤0.01 µM
"CCOC[C@H](Cc1ccc(OCCN=[N+]=[N-])cc1)n1cnc2c(N)nc3ccccc3c21 [Example 1, (S)-1-(1-(4-(2-azidoethoxy)phenyl)-3-ethoxypropan-2-yl)-1H-imidazo[4,5-c]quinolin-4-amine]",10 µM,≤0.01 µM,≤0.01 µM,≤0.01 µM,≤0.01 µM
"CCOC[C@H](Cc1ccc(OCCCCCCCCCCCN=[N+]=[N-])cc1)n1cnc2c(N)nc3ccccc3c21 [Example 3, (S)-1-(1-(4-((11-azidoundecyl)oxy)phenyl)-3-ethoxypropan-2-yl)-1H-imidazo[4,5-c]quinolin-4-amine]",>30 µM,3.3 µM,>30 µM,1.1 µM,1.1 µM
